Results as given in ChEMBL document CHEMBL1201861, “Genomics of Drug Sensitity in Cancer screening data, Wellcome Trust Sanger Institute”.

Columns and labels:
Test in all cases: cells
A-375 = assay type: functional, cell-based, Homo sapiens; conditions: Homo sapiens, A-375;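 also: growth inhibition of A375 cells, read out with a cell viability assay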
Description: SANGER: Inhibition of human A375 cell growth in a cell viability assay.

COLO-741 = assay type: functional, cell-based, Homo sapiens; conditions: Homo sapiens, COLO-741
Description: SANGER: Inhibition of human COLO-741 cell growth in a cell viability assay.

BPH-1 = assay type: functional, cell-based, Homo sapiens; conditions: Homo sapiens, BPH-1;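 also: cell viability assay measuring growth inhibition of human BPH-1 cells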
Description: SANGER: Inhibition of human BPH-1 cell growth in a cell viability assay.

J82 = assay type: functional, cell-based; conditions: Homo sapiens;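 also: growth inhibition of J82 cells, read out with a cell viability assay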
Description: SANGER: Inhibition of human J82 cell growth in a cell viability assay.

MFH-ino = assay type: functional, cell-based; conditions: Homo sapiens;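 also: growth inhibition of human MFH-ino cells, read out by a cell viability assay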
Description: SANGER: Inhibition of human MFH-ino cell growth in a cell viability assay.

639-V = assay type: functional, cell-based, Homo sapiens; conditions: Homo sapiens, 639-V;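 also: growth inhibition of 639-V cells, read out with a cell viability assay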
Description: SANGER: Inhibition of human 639-V cell growth in a cell viability assay.

U-118-MG = assay type: functional, cell-based, Homo sapiens; conditions: Homo sapiens, U-118-MG
Description: SANGER: Inhibition of human U-118-MG cell growth in a cell viability assay.

CW-2 = assay type: functional, cell-based, Homo sapiens; conditions: Homo sapiens, CW-2;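 also: growth inhibition of CW-2 cells, read out by a cell viability assay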
Description: SANGER: Inhibition of human CW-2 cell growth in a cell viability assay.

PA-1 = assay type: functional, cell-based, Homo sapiens; conditions: Homo sapiens, PA-1;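 also: IC50 for suppression of PA-1 cell proliferation, determined with a cell viability read-out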
Description: SANGER: Inhibition of human PA-1 cell growth in a cell viability assay.

EFO-21 = assay type: functional, cell-based, Homo sapiens; conditions: Homo sapiens, EFO-21;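 also: growth inhibition of EFO-21 cells measured with a viability assay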
Description: SANGER: Inhibition of human EFO-21 cell growth in a cell viability assay.

JAR = assay type: functional, cell-based, Homo sapiens; conditions: Homo sapiens, JAR;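 also: growth inhibition of human JAR cells determined with a cell viability assay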
Description: SANGER: Inhibition of human JAR cell growth in a cell viability assay.

SW48 = assay type: functional, cell-based, Homo sapiens; conditions: Homo sapiens, SW48;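 also: growth inhibition of SW48 cells, read out with a cell viability assay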
Description: SANGER: Inhibition of human SW48 cell growth in a cell viability assay.

ME-180 = assay type: functional, cell-based; conditions: Homo sapiens;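 also: cell viability assay measuring growth inhibition of ME-180 cells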
Description: SANGER: Inhibition of human ME-180 cell growth in a cell viability assay.

LXF-289 cell line = assay type: functional, cell-based, Homo sapiens; conditions: Homo sapiens, LXF-289
Description: SANGER: Inhibition of human LXF-289 cell growth in a cell viability assay.

HCC 2998 = assay type: functional, cell-based, Homo sapiens; conditions: Homo sapiens, HCC 2998;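 also: growth inhibition of human HCC2998 cells, measured with a cell viability read-out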
Description: SANGER: Inhibition of human HCC2998 cell growth in a cell viability assay.

MOLT-4 = assay type: functional, cell-based; conditions: Homo sapiens;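 also: growth inhibition of MOLT-4 cells, determined with a cell viability readout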
Description: SANGER: Inhibition of human MOLT-4 cell growth in a cell viability assay.

NCI-H520 = assay type: functional, cell-based, Homo sapiens; conditions: Homo sapiens, NCI-H520;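 also: growth inhibition of NCI-H520 cells, measured by a cell viability assay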
Description: SANGER: Inhibition of human NCI-H520 cell growth in a cell viability assay.

NCI-H441 = assay type: functional, cell-based; conditions: Homo sapiens;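 also: growth inhibition of NCI-H441 cells, read out with a cell viability assay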
Description: SANGER: Inhibition of human NCI-H441 cell growth in a cell viability assay.

RCM-1 = assay type: functional, cell-based, Homo sapiens; conditions: Homo sapiens, RCM-1;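 also: growth inhibition of the RCM-1 line, determined with a cell viability readout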
Description: SANGER: Inhibition of human RCM-1 cell growth in a cell viability assay.

MIA PaCa-2 = assay type: functional, cell-based, Homo sapiens; conditions: Homo sapiens, MIA PaCa-2;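 also: growth inhibition of MIA PaCa-2 cells, read out with a cell viability assay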
Description: SANGER: Inhibition of human MIA-PaCa-2 cell growth in a cell viability assay.

T47D = assay type: functional, cell-based, Homo sapiens; conditions: Homo sapiens, T47D;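 also: growth inhibition of human T47D cells, measured with a cell viability assay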
Description: SANGER: Inhibition of human T47D cell growth in a cell viability assay.

SF-268 = assay type: functional, cell-based, Homo sapiens; conditions: Homo sapiens, SF-268;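 also: growth inhibition of SF-268 cells determined with a cell viability assay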
Description: SANGER: Inhibition of human SF268 cell growth in a cell viability assay.

IGR-1 = assay type: functional, cell-based, Homo sapiens; conditions: Homo sapiens, IGR-1;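 also: growth inhibition of human IGR-1 cells, read out with a cell viability assay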
Description: SANGER: Inhibition of human IGR-1 cell growth in a cell viability assay.

Ramos-2G6-4C10 = assay type: functional, cell-based; conditions: Homo sapiens;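 also: growth inhibition of the cell line, measured by a cell viability read-out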
Description: SANGER: Inhibition of human Ramos-2G6-4C10 cell growth in a cell viability assay.

ACHN = assay type: functional, cell-based, Homo sapiens; conditions: Homo sapiens, ACHN;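 also: cell viability read-out used to gauge how strongly growth of human ACHN cells is suppressed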
Description: SANGER: Inhibition of human ACHN cell growth in a cell viability assay.

HOP-92 = assay type: functional, cell-based, Homo sapiens; conditions: Homo sapiens, HOP-92;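 also: cell viability readout, with IC50 reflecting inhibition of HOP-92 cell growth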
Description: SANGER: Inhibition of human HOP-92 cell growth in a cell viability assay.

NCI-H446 = assay type: functional, cell-based; conditions: Homo sapiens;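 also: growth inhibition of NCI-H446 cells determined by a cell viability assay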
Description: SANGER: Inhibition of human NCI-H446 cell growth in a cell viability assay.

SNU1 = assay type: functional, cell-based; conditions: Homo sapiens;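 also: growth inhibition of human NCI-SNU-1 cells, measured with a cell viability assay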
Description: SANGER: Inhibition of human NCI-SNU-1 cell growth in a cell viability assay.

ES4 = assay type: functional, cell-based, Homo sapiens; conditions: Homo sapiens, ES4;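 also: growth inhibition of human ES4 cells, read out by a cell viability assay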
Description: SANGER: Inhibition of human ES4 cell growth in a cell viability assay.

G-402 = assay type: functional, cell-based, Homo sapiens; conditions: Homo sapiens, G-402
Description: SANGER: Inhibition of human G-402 cell growth in a cell viability assay.

RPMI-8226 = assay type: functional, cell-based; conditions: Homo sapiens
Description: SANGER: Inhibition of human RPMI-8226 cell growth in a cell viability assay.

COLO-684 = assay type: functional, cell-based; conditions: Homo sapiens
Description: SANGER: Inhibition of human COLO-684 cell growth in a cell viability assay.

RMG-I = assay type: functional, cell-based, Homo sapiens; conditions: Homo sapiens, RMG-I;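 also: growth inhibition of human RMG-I cells, read out with a cell viability assay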
Description: SANGER: Inhibition of human RMG-I cell growth in a cell viability assay.

KYSE-150 cell line = assay type: functional, cell-based, Homo sapiens; conditions: Homo sapiens, KYSE-150;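 also: growth inhibition of human KYSE-150 cells, read out with a cell viability assay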
Description: SANGER: Inhibition of human KYSE-150 cell growth in a cell viability assay.

MEG-01 = assay type: functional, cell-based; conditions: Homo sapiens;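 also: growth inhibition of MEG-01 cells, read out by a cell viability assay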
Description: SANGER: Inhibition of human MEG-01 cell growth in a cell viability assay.

HCC1569 = assay type: functional, cell-based, Homo sapiens; conditions: Homo sapiens, HCC1569;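 also: growth inhibition of human HCC1569 cells, read out with a cell viability assay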
Description: SANGER: Inhibition of human HCC1569 cell growth in a cell viability assay.

SW1990 = assay type: functional, cell-based, Homo sapiens; conditions: Homo sapiens, SW1990;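 also: cell growth inhibition determined with a viability assay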
Description: SANGER: Inhibition of human SW1990 cell growth in a cell viability assay.

NCI-H1437 = assay type: functional, cell-based, Homo sapiens; conditions: Homo sapiens, NCI-H1437;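 also: growth inhibition of human NCI-H1437 cells, read out by a cell viability assay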
Description: SANGER: Inhibition of human NCI-H1437 cell growth in a cell viability assay.

CP66-MEL = assay type: functional, cell-based, Homo sapiens; conditions: Homo sapiens, CP66-MEL;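 also: growth inhibition of CP66-MEL cells determined in a cell viability assay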
Description: SANGER: Inhibition of human CP66-MEL cell growth in a cell viability assay.

HTC-C3 = assay type: functional, cell-based, Homo sapiens; conditions: Homo sapiens, HTC-C3;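 also: inhibition of cell growth, read out with a cell viability assay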
Description: SANGER: Inhibition of human HTC-C3 cell growth in a cell viability assay.

NOS-1 = assay type: functional, cell-based, Homo sapiens; conditions: Homo sapiens, NOS-1;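 also: growth inhibition of the human NOS-1 cell line, read out with a cell viability assay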
Description: SANGER: Inhibition of human NOS-1 cell growth in a cell viability assay.

HD-MY-Z = assay type: functional, cell-based, Homo sapiens; conditions: Homo sapiens, HD-MY-Z;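 also: growth inhibition of HD-MY-Z cells, read out with a cell viability assay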
Description: SANGER: Inhibition of human HD-MY-Z cell growth in a cell viability assay.

SW780 = assay type: functional, cell-based, Homo sapiens; conditions: Homo sapiens, SW780;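 also: growth inhibition of the cells, read out with a cell viability assay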
Description: SANGER: Inhibition of human SW780 cell growth in a cell viability assay.

CAKI-1 = assay type: functional, cell-based, Homo sapiens; conditions: Homo sapiens, CAKI-1;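 also: growth inhibition of CAKI-1 cells, measured by a cell viability assay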
Description: SANGER: Inhibition of human CAKI-1 cell growth in a cell viability assay.

MDA-MB-175-VII = assay type: functional, cell-based, Homo sapiens; conditions: Homo sapiens, MDA-MB-175-VII
BFTC-909 = assay type: functional, cell-based, Homo sapiens; conditions: Homo sapiens, BFTC-909
Description: SANGER: Inhibition of human BFTC-909 cell growth in a cell viability assay.

VA-ES-BJ = assay type: functional, cell-based, Homo sapiens; conditions: Homo sapiens, VA-ES-BJ;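 also: growth inhibition of the VA-ES-BJ cell line, read out by a cell viability assay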
Description: SANGER: Inhibition of human VA-ES-BJ cell growth in a cell viability assay.

T98G = assay type: functional, cell-based, Homo sapiens; conditions: Homo sapiens, T98G;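 also: growth inhibition of T98G cells, read out by a cell viability assay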
Description: SANGER: Inhibition of human T98G cell growth in a cell viability assay.

HCC2218 = assay type: functional, cell-based; conditions: Homo sapiens;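 also: cell viability assay read-out, with IC50 given as the concentration that inhibits growth of the cell line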
Description: SANGER: Inhibition of human HCC2218 cell growth in a cell viability assay.

SNU-5 = assay type: functional, cell-based; conditions: Homo sapiens;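 also: cell viability readout used to measure growth inhibition in human NCI-SNU-5 cells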
Description: SANGER: Inhibition of human NCI-SNU-5 cell growth in a cell viability assay.

LU-139 = assay type: functional, cell-based; conditions: Homo sapiens
Description: SANGER: Inhibition of human LU-139 cell growth in a cell viability assay.

O=c1cc(-c2cccc3c2Sc2ccccc2S3)oc(N2CCOCC2)c1 [KU-55933]
IC50 (A-375): > 10 µM | IC50 (COLO-741): > 10 µM | IC50 (BPH-1): > 10 µM | IC50 (J82): > 10 µM | IC50 (MFH-ino): > 10 µM | IC50 (639-V): > 10 µM | IC50 (U-118-MG): > 10 µM | IC50 (CW-2): > 10 µM | IC50 (PA-1): > 10 µM | IC50 (EFO-21): > 10 µM | IC50 (JAR): > 10 µM | IC50 (SW48): > 10 µM | IC50 (ME-180): > 10 µM | IC50 (LXF-289 cell line): > 10 µM | IC50 (HCC 2998): > 10 µM | IC50 (MOLT-4): > 10 µM | IC50 (NCI-H520): > 10 µM | IC50 (NCI-H441): > 10 µM | IC50 (RCM-1): > 10 µM | IC50 (MIA PaCa-2): > 10 µM | IC50 (T47D): > 10 µM | IC50 (SF-268): > 10 µM | IC50 (IGR-1): > 10 µM | IC50 (Ramos-2G6-4C10): > 10 µM | IC50 (ACHN): > 10 µM | IC50 (HOP-92): > 10 µM | IC50 (NCI-H446): > 10 µM | IC50 (SNU1): > 10 µM | IC50 (ES4): > 10 µM | IC50 (G-402): > 10 µM | IC50 (RPMI-8226): > 10 µM | IC50 (COLO-684): > 10 µM | IC50 (RMG-I): > 10 µM | IC50 (KYSE-150 cell line): > 10 µM | IC50 (MEG-01): > 10 µM | IC50 (HCC1569): > 10 µM | IC50 (SW1990): > 10 µM | IC50 (NCI-H1437): 9.81 µM | IC50 (CP66-MEL): > 10 µM | IC50 (HTC-C3): > 10 µM | IC50 (NOS-1): > 10 µM | IC50 (HD-MY-Z): > 10 µM | IC50 (SW780): > 10 µM | IC50 (CAKI-1): > 10 µM | IC50 (MDA-MB-175-VII): > 10 µM | IC50 (BFTC-909): > 10 µM | IC50 (VA-ES-BJ): > 10 µM | IC50 (T98G): > 10 µM

COc1ccc(C2=N[C@@H](c3ccc(Cl)cc3)[C@@H](c3ccc(Cl)cc3)N2C(=O)N2CCNC(=O)C2)c(OC(C)C)c1 [NUTLIN-3]
IC50 (A-375): 4.34 µM | IC50 (HCC2218): 7.63 µM | IC50 (COLO-741): > 8 µM | IC50 (BPH-1): > 8 µM | IC50 (J82): > 8 µM | IC50 (SNU-5): > 8 µM | IC50 (LU-139): > 8 µM | IC50 (639-V): > 8 µM | IC50 (U-118-MG): > 8 µM | IC50 (CW-2): > 8 µM | IC50 (PA-1): 0.871 µM | IC50 (EFO-21): > 8 µM | IC50 (JAR): > 8 µM | IC50 (SW48): > 8 µM | IC50 (ME-180): > 8 µM | IC50 (LXF-289 cell line): > 8 µM | IC50 (HCC 2998): > 8 µM | IC50 (MOLT-4): 2.33 µM | IC50 (NCI-H520): > 8 µM | IC50 (NCI-H441): > 8 µM | IC50 (RCM-1): > 8 µM | IC50 (MIA PaCa-2): > 8 µM | IC50 (T47D): > 8 µM | IC50 (SF-268): > 8 µM | IC50 (IGR-1): > 8 µM | IC50 (Ramos-2G6-4C10): > 8 µM | IC50 (ACHN): > 8 µM | IC50 (HOP-92): > 8 µM | IC50 (NCI-H446): > 8 µM | IC50 (SNU1): 3.28 µM | IC50 (ES4): 2.43 µM | IC50 (G-402): 3.81 µM | IC50 (RPMI-8226): > 8 µM | IC50 (COLO-684): > 8 µM | IC50 (RMG-I): > 8 µM | IC50 (KYSE-150 cell line): > 8 µM | IC50 (MEG-01): > 8 µM | IC50 (HCC1569): > 8 µM | IC50 (SW1990): > 8 µM | IC50 (NCI-H1437): > 8 µM | IC50 (HTC-C3): > 8 µM | IC50 (NOS-1): > 8 µM | IC50 (HD-MY-Z): > 8 µM | IC50 (SW780): 2.51 µM | IC50 (CAKI-1): 3.13 µM | IC50 (MDA-MB-175-VII): > 8 µM | IC50 (BFTC-909): > 8 µM | IC50 (VA-ES-BJ): 2.54 µM | IC50 (T98G): > 8 µM
